Test results from publication PMC12340973, “Discovery of First-in-Class Inhibitors Targeting a Pathogen-Associated Aminoglycoside-Resistance 16S rRNA Methyltransferase” (ACS Infectious Diseases, 2025).

How the values were obtained:
Assay type in all cases: biochemical
[1] = molecular target: T1, NpmA (16S rRNA (m1A1408) methyltransferase) (Escherichia coli, UniProt A8C927); experiment: in vitro […] subunit [3H]-SAM methylation filter-binding assay, dose-response; resynthesized and retested
T1 construct: recombinant NpmA
T1 sequence (A8C927 whole entry): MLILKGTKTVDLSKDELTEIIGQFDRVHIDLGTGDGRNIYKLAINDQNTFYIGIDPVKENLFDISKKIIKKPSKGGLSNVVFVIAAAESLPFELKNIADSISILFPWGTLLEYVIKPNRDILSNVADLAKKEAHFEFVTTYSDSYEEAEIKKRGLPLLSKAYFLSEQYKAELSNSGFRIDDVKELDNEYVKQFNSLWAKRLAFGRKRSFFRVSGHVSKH

[2] = molecular target: T1, NpmA (16S rRNA (m1A1408) methyltransferase); experiment: in vitro […] subunit [3H]-SAM methylation assay at fixed […]; details: read-out: % activity at 1 mM
[3] = molecular target: T1, NpmA (16S rRNA (m1A1408) methyltransferase); experiment: in vitro […] subunit [3H]-SAM methylation filter-binding assay, dose-response

Row | SMILES | activity at 1000 µM [2] [%] | IC50 [3] [µM] | further results
1 | CC(=O)c1ccc(NC(=O)/C(=C/c2cccc([N+](=O)[O-])c2)NC(=O)c2ccccc2Cl)cc1 [compound 23, (Z)-N-(3-((4-Acetylphenyl)-amino)-1-(3-nitrophenyl)-3-oxoprop-1-en-2-yl)-2-chlorobenz-amide] | – | – | IC50 [1]: 76 µM
2 | CC(=O)c1ccc(NC(=O)/C(=C/c2cccc([N+](=O)[O-])c2)NC(=O)c2ccc(C)cc2)cc1 [compound 3] | < 25 | – | –
3 | Cc1ccc(NC(=O)C(=Cc2cccc([N+](=O)[O-])c2)NC(=O)c2ccc(Cl)cc2Cl)cc1 [compound 47] | – | 68 | –
4 | Cc1ccc(NC(=O)C(=Cc2cccc([N+](=O)[O-])c2)NC(=O)c2ccccc2I)cc1 [compound 45] | – | 99 | –
5 | Cc1ccc(-c2cc(C(=O)N3CCC(c4cc(O)ncn4)CC3)[nH]n2)cc1 [compound 10] | < 25 | – | –
6 | COc1cc(C2C(C(=O)OCCc3ccccc3)=C(C)NC3=C2C(=O)CC(c2ccccc2)C3)cc(Br)c1O (stereo not drawn) [compound 20] | < 25 | – | –
